According to patent US9693556B2, “Herbicidal pyridazinone derivatives” (SYNGENTA LIMITED, priority 2011, dated 2017):

Tests used:
Format in all cases: in vivo
[1] = test system: Amaranthus retoflexus (AMARE); assay: Post-emergence herbicidal glasshouse test on Amaranthus retoflexus; conditions: post-emergence; 1000 g/h; evaluated after 13 days
In short: (§1)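 Pre-emergence treatment came one day after sowing, post-emergence treatment after eight days' growth; both used 1000 g/h in a 0.5% Tween 20 acetone/water vehicle. Percent damage, scored 1–5, was read 13 days later.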

[2] = test system: Echinochloa crus-galli (ECHCG); assay: Pre-emergence herbicidal glasshouse test on Echinochloa crus-galli; conditions: pre-emergence; 1000 g/h; evaluated after 13 days
In short: as §1

[3] = test system: Amaranthus retoflexus (AMARE); assay: Pre-emergence herbicidal glasshouse test on Amaranthus retoflexus; conditions: pre-emergence; 1000 g/h; evaluated after 13 days
In short: as §1

[4] = test system: Alopecurus myosuroides (ALOMY); assay: Pre-emergence herbicidal glasshouse test on Alopecurus myosuroides; conditions: pre-emergence; 1000 g/h; evaluated after 13 days
In short: as §1

[5] = test system: Ipomoea hederacea (IPOHE); assay: Pre-emergence herbicidal glasshouse test on Ipomoea hederacea; conditions: pre-emergence; 1000 g/h; evaluated after 13 days
In short: as §1

[6] = test system: Setaria faberi (SETFA); assay: Post-emergence herbicidal glasshouse test on Setaria faberi; conditions: post-emergence; 1000 g/h; evaluated after 13 days
In short: as §1

[7] = test system: Echinochloa crus-galli (ECHCG); assay: Post-emergence herbicidal glasshouse test on Echinochloa crus-galli; conditions: post-emergence; 1000 g/h; evaluated after 13 days
In short: as §1

[8] = test system: Solanum nigrum (SOLNI); assay: Post-emergence herbicidal glasshouse test on Solanum nigrum; conditions: post-emergence; 1000 g/h; evaluated after 13 days
In short: as §1

[9] = test system: Setaria faberi (SETFA); assay: Pre-emergence herbicidal glasshouse test on Setaria faberi; conditions: pre-emergence; 1000 g/h; evaluated after 13 days
In short: as §1

[10] = test system: Solanum nigrum (SOLNI); assay: Pre-emergence herbicidal glasshouse test on Solanum nigrum; conditions: pre-emergence; 1000 g/h; evaluated after 13 days
In short: as §1

[11] = test system: Alopecurus myosuroides (ALOMY); assay: Post-emergence herbicidal glasshouse test on Alopecurus myosuroides; conditions: post-emergence; 1000 g/h; evaluated after 13 days
In short: as §1

[12] = test system: Ipomoea hederacea (IPOHE); assay: Post-emergence herbicidal glasshouse test on Ipomoea hederacea; conditions: post-emergence; 1000 g/h; evaluated after 13 days
In short: as §1

Compound	POST Application AMARE herbicidal damage (five point scale) [1]	PRE Application ECHCG herbicidal damage (five point scale) [2]	PRE Application AMARE herbicidal damage (five point scale) [3]	PRE Application ALOMY herbicidal damage (five point scale) [4]	PRE Application IPOHE herbicidal damage (five point scale) [5]	POST Application SETFA herbicidal damage (five point scale) [6]	POST Application ECHCG herbicidal damage (five point scale) [7]	POST Application SOLNI herbicidal damage (five point scale) [8]	PRE Application SETFA herbicidal damage (five point scale) [9]	PRE Application SOLNI herbicidal damage (five point scale) [10]	POST Application ALOMY herbicidal damage (five point scale) [11]	POST Application IPOHE herbicidal damage (five point scale) [12]
Cc1c(-c2c(C(C)C)nn(C)c(=O)c2O)ccc(S(C)(=O)=O)c1C1=NOCC1 [Compound 2.024]	5 (5=80-100% damage)	5 (5=80-100% damage)	5 (5=80-100% damage)	5 (5=80-100% damage)	4 (4=60-79% damage)	5 (5=80-100% damage)	5 (5=80-100% damage)	5 (5=80-100% damage)	4 (4=60-79% damage)	4 (4=60-79% damage)	5 (5=80-100% damage)	5 (5=80-100% damage)
Cc1c(-c2c(C#N)nn(C)c(=O)c2O)ccc(S(C)(=O)=O)c1C1=NOCC1 [Compound 2.025]	5 (5=80-100% damage)	1 (1=0-19% damage)	5 (5=80-100% damage)	1 (1=0-19% damage)	5 (5=80-100% damage)	1 (1=0-19% damage)	4 (4=60-79% damage)	5 (5=80-100% damage)	1 (1=0-19% damage)	5 (5=80-100% damage)	2 (2=20-39% damage)	4 (4=60-79% damage)
C#Cc1ccc(-c2cnn(C)c(=O)c2O)c(S(C)(=O)=O)c1 [Compound 2.028]	5 (5=80-100% damage)	5 (5=80-100% damage)	5 (5=80-100% damage)	5 (5=80-100% damage)	4 (4=60-79% damage)	5 (5=80-100% damage)	5 (5=80-100% damage)	5 (5=80-100% damage)	4 (4=60-79% damage)	5 (5=80-100% damage)	5 (5=80-100% damage)	5 (5=80-100% damage)
CC#Cc1ccc(-c2cnn(C)c(=O)c2O)c(S(C)(=O)=O)c1 [Compound 2.029]	5 (5=80-100% damage)	5 (5=80-100% damage)	5 (5=80-100% damage)	5 (5=80-100% damage)	1 (1=0-19% damage)	5 (5=80-100% damage)	5 (5=80-100% damage)	5 (5=80-100% damage)	3 (3=40-59% damage)	5 (5=80-100% damage)	5 (5=80-100% damage)	5 (5=80-100% damage)
Cn1ncc(-c2ccc(OCC(F)(F)F)cc2S(C)(=O)=O)c(O)c1=O [Compound 2.030]	5 (5=80-100% damage)	5 (5=80-100% damage)	5 (5=80-100% damage)	5 (5=80-100% damage)	4 (4=60-79% damage)	5 (5=80-100% damage)	5 (5=80-100% damage)	5 (5=80-100% damage)	5 (5=80-100% damage)	5 (5=80-100% damage)	5 (5=80-100% damage)	5 (5=80-100% damage)
Cc1ccc(-c2cnn(C)c(=O)c2O)c(S(C)(=O)=O)c1 [Compound 2.031]	5 (5=80-100% damage)	5 (5=80-100% damage)	5 (5=80-100% damage)	4 (4=60-79% damage)	3 (3=40-59% damage)	5 (5=80-100% damage)	5 (5=80-100% damage)	5 (5=80-100% damage)	5 (5=80-100% damage)	5 (5=80-100% damage)	4 (4=60-79% damage)	5 (5=80-100% damage)
Cn1ncc(-c2ccc([N+](=O)[O-])cc2S(C)(=O)=O)c(O)c1=O [Compound 2.032]	5 (5=80-100% damage)	5 (5=80-100% damage)	5 (5=80-100% damage)	2 (2=20-39% damage)	3 (3=40-59% damage)	4 (4=60-79% damage)	5 (5=80-100% damage)	5 (5=80-100% damage)	2 (2=20-39% damage)	5 (5=80-100% damage)	3 (3=40-59% damage)	5 (5=80-100% damage)
Cn1ncc(-c2ccc(-c3ccccc3)cc2S(C)(=O)=O)c(O)c1=O [Compound 2.033]	5 (5=80-100% damage)	4 (4=60-79% damage)	5 (5=80-100% damage)	4 (4=60-79% damage)	1 (1=0-19% damage)	3 (3=40-59% damage)	5 (5=80-100% damage)	5 (5=80-100% damage)	2 (2=20-39% damage)	5 (5=80-100% damage)	5 (5=80-100% damage)	5 (5=80-100% damage)
Cn1ncc(-c2ccc(SCc3ccccc3)cc2S(C)(=O)=O)c(O)c1=O [Compound 2.035]	5 (5=80-100% damage)	3 (3=40-59% damage)	5 (5=80-100% damage)	3 (3=40-59% damage)	3 (3=40-59% damage)	5 (5=80-100% damage)	5 (5=80-100% damage)	5 (5=80-100% damage)	2 (2=20-39% damage)	5 (5=80-100% damage)	4 (4=60-79% damage)	5 (5=80-100% damage)
